COc1cc([N+](=O)[O-])ccc1N
solubility (mole fraction)
Conditions	278.15 K	283.15 K	288.15 K	293.15 K	298.15 K	303.15 K	308.15 K	313.15 K	318.15 K	323.15 K
in 1,4-dioxane	–	–	0.0402	0.0468	0.0556	0.0652	0.0775	0.0925	0.111	0.133
in DMSO	–	–	–	0.235	0.249	0.264	0.281	0.3	0.321	0.344
in NMP	0.256	0.272	0.287	0.303	0.321	0.339	0.359	0.38	0.402	0.426
in acetonitrile	0.0118	0.0141	0.0175	0.0213	0.0269	0.0345	0.0433	0.0547	0.0683	0.0872
in ethanol	0.00263	0.00307	0.00363	0.00438	0.00534	0.00636	0.0078	0.00978	0.0121	0.015
in ethyl acetate	0.0186	0.0227	0.0269	0.0326	0.0398	0.0486	0.0596	0.0716	0.0854	0.103
in ethylene glycol	0.0017	0.00201	0.00243	0.00284	0.00345	0.00424	0.00527	0.00643	0.00796	0.00973
in methanol	0.00238	0.0028	0.00333	0.00392	0.00466	0.00565	0.00682	0.00844	0.0104	0.0129
in n-butanol	0.00135	0.00166	0.00202	0.00248	0.00304	0.00371	0.00457	0.0057	0.0072	0.00886
in n-propanol	0.00199	0.00239	0.0029	0.0035	0.00423	0.00512	0.00616	0.00738	0.00876	0.0104
in water	4e-06	6e-06	7e-06	9e-06	1.3e-05	1.7e-05	2.4e-05	3.2e-05	4.2e-05	5.5e-05

Reference: BigSolDB 2.1
